Measurements taken from US20080113955A1, “TREATMENT OF INFANT HYPERBIL[…] LOW DOSAGES OF STANNSOPORFIN” (priority 2006, published 2008).

Tests used:
[1] = test system: infant hyperbilirubinemia; test: Low-dose administration of stannsoporfin in infants with hyperbilirubinemia (all receiving phototherapy): serum bilirubin and need for exchange transfusion; assay type: in vivo, human; conditions: for # transfused pts (babies total received exchange transfusions): intramuscular, before or after treatment
Description: (§1) Low-dose administration of stannsoporfin was tested in a group of infants in Hanoi, Vietnam and Michigan, United States. The known and unknown risks of the proposed study intervention and the potential for direct and indirect benefit were discussed with each subject's parents or guardians. Written informed consent was obtained from a parent or guardian of each subject before enrollment in the study. The study protocol was conducted under the guidelines of current Good Clinical Practice as promulgated by the United States Food and Drug Administration and international regulatory bodies. The study was reviewed and approved by the Institutional Review Board of the William Beaumont Hospital, Royal Oak, Mich., and the Vietnamese Ministry of Health and the Ethics Review Board of the National Hospital for Pediatrics of Hanoi.
All infants received phototherapy to treat hyperbilirubinemia; thus, the group designated as “placebo” were treated with phototherapy, as were the other groups. The placebo group had 18 babies total. […] The 0.75 mg/kg stannsoporfin group had 19 babies total. […] The 1.5 mg/kg stannsoporfin group had 18 babies total. […] Treatment refers to either placebo injection or stannsoporfin injection; as previously indicated, all babies received phototherapy. The placebo used was normal physiological saline. Stannsoporfin was administered via intramuscular injection in sodium phosphate buffer at a concentration of 20 mg/ml. A vial containing 1.5 ml was used, where a dose based on birthweight of the infant and whether a 0.75 mg/kg or 1.5 mg/kg dose was withdrawn. (For example, a 5 kg birthweight baby treated at a dose of 1.5 mg/kg would receive 7.5 mg of stannsoporfin; thus, a volume of 0.375 ml from the 20 mg/ml solution would be used to provide this dose.) In the majority of cases, the infants were between 4 and 7 days of age at the time of either stannsoporfin administration or exchange transfusion. The results are shown in FIG. 1 and FIG. 2; infants receiving stannsoporfin injections who required exchange transfusions before or after treatment are not included in the data presented in FIG. 1 for any group, while babies in the stannsoporfin groups who required exchange transfusion are excluded from FIG. 2 and only babies in the placebo group that did receive exchange transfusion are included in FIG. 2.

[2] = Side effects / adverse events in the low-dose stannsoporfin infant study; assay type: in vivo, human
Description: as §1
All infants received phototherapy to treat hyperbilirubinemia; thus, the group designated as “placebo” were treated with phototherapy, as were the other groups. The placebo group had 18 babies total. […] The 0.75 mg/kg stannsoporfin group had 19 babies total. […] The 1.5 mg/kg stannsoporfin group had 18 babies total. […] Treatment refers to either placebo injection or stannsoporfin injection; as previously indicated, all babies received phototherapy. The placebo used was normal physiological saline. Stannsoporfin was administered via intramuscular injection in sodium phosphate buffer at a concentration of 20 mg/ml. A vial containing 1.5 ml was used, where a dose based on birthweight of the infant and whether a 0.75 mg/kg or 1.5 mg/kg dose was withdrawn. (For example, a 5 kg birthweight baby treated at a dose of 1.5 mg/kg would receive 7.5 mg of stannsoporfin; thus, a volume of 0.375 ml from the 20 mg/ml solution would be used to provide this dose.) In the majority of cases, the infants were between 4 and 7 days of age at the time of either stannsoporfin administration or exchange transfusion. […]

[3] = test system: jaundiced infants; conditions: single dose of 6 umol/kg birthweight (4.5 mg/kg birthweight); cited from earlier work
[4] = 0.75 mg/kg group, 19 babies total
[5] = 1.5 mg/kg group, 18 babies total

tin (IV) mesoporphyrin IX dichloride [stannsoporfin]
# transfused pts (babies total received exchange transfusions) ([1]; 0.75 mg/kg birthweight, N = 19, plus phototherapy): 3 | babies who did not receive an exchange transfusion [1, 4]: 16 | babies who received an exchange transfusion after treatment [1, 4]: 1 | % requiring transfusions ([1]; 0.75 mg/kg, N = 19): 16% | # transfused pts (babies total received exchange transfusions) ([1]; 1.5 mg/kg birthweight, N = 18, plus phototherapy): 2 | babies who did not receive exchange transfusion [1, 5]: 16 | babies who received an exchange transfusion after treatment [1, 5]: 2 | % requiring transfusions ([1]; 1.5 mg/kg, N = 18): 11% | significance value P versus placebo, serum bilirubin ([1]; 1.5 mg/kg, at 24 hours, FIG. 1): < 0.05 | significance value P versus placebo, serum bilirubin ([1]; 1.5 mg/kg, at 48 hours, FIG. 1): < 0.001 | decrease in serum bilirubin compared with the exchange transfusion (placebo injection) group ([1]; 1.5 mg/kg, FIG. 2): greater than that for the exchange transfusion group at 3 of the 4 post-treatment data points | reduction of serum bilirubin versus placebo (phototherapy only) ([1]; both doses, 0.75 mg/kg and 1.5 mg/kg, babies who required exchange transfusions excluded, FIG. 1): greater reduction of serum bilirubin than the placebo group | percentage reduction in starting bilirubin levels ([1]; both stannsoporfin groups, 0.75 mg/kg and 1.5 mg/kg, babies without exchange transfusion, FIG. 2): substantial decrease in serum bilirubin | need for exchange transfusion ([1]; low-dose stannsoporfin (0.75 and 1.5 mg/kg) versus control): significantly decreased the need for exchange transfusion | adverse events considered probably or definitely related to the study treatment ([2]; all treatment groups): None | infants who experienced at least one adverse event ([2]; each treatment group): Greater than 60% | incidence, severity, seriousness, and causality of adverse events, differences among the three treatment groups ([2]; placebo, 0.75 mg/kg and 1.5 mg/kg groups): no statistically significant differences | need for phototherapy in jaundiced infants [3]: could avoid the need for phototherapy
